From US6890736B1, “Methods for producing proteins in cultured cells” (Immunex Corporation, priority 2002, dated 2005)

What was measured:
[1] = Example 2: cell number and viability; type: cell-based, Chinese hamster; details: Chinese hamster; for viability at 6 day, 10 μM / viability at 8 day, 10 μM / viability at 0 day, 10 μM / viability at 3 day, 10 μM: 10 μM decitabine; for viability at 6 day, 10 μM / viability at 6 day, 15 μM / viability at 6 day, 20 μM: day 6; for viability at 8 day, 10 μM / viability at 8 day, 15 μM / viability at 8 day, 20 μM: day 8; for viability at 0 day, 15 μM / viability at 3 day, 15 μM / viability at 6 day, 15 μM / viability at 8 day, 15 μM: 15 μM decitabine; for viability at 0 day, 15 μM / viability at 0 day, 20 μM / viability at 0 day, 10 μM: day 0; for viability at 3 day, 15 μM / viability at 3 day, 20 μM / viability at 3 day, 10 μM: day 3; for viability at 0 day, 20 μM / viability at 3 day, 20 μM / viability at 6 day, 20 μM / viability at 8 day, 20 μM: 20 μM decitabine
Method: (§1) About 2×10^6 cells of cell line 25H9 were inoculated into 30 milliliters of serum-free medium and incubated at the temperatures indicated in Table 1 in vented shake flasks. At the times indicated in Table 1, samples were taken from each flask to determine IL-1R-II titer, cell number, and cell viability. IL-1R-II protein titer was determined by ELISA assay. Cell number was determined by counting cells in a hemocytometer. Cell viability was determined by trypan blue staining and counting stained cells in a hemocytometer. Cumulative viable cell density (CVCD) is the area under the curve of a plot of the viable cell density versus time (in units of cells/ml/day). Productivity (pg of IL-1R-II/cell/day) was determined by dividing the protein titer on a particular day by the CVCD on the same day. Cells were fed with amino acids on days 2 and 5, and dextrose was added periodically in order to maintain levels above 2.0 g/L. All samples were done in duplicate, and the data shown is an average value.
(§2) To determine an optimum temperature and decitabine concentration, three temperatures (30° C., 31° C., and 32° C.) and three decitabine concentrations (10 μM, 15 μM, and 20 μM) were tested. A 31° C. culture containing 0.5 mM sodium butyrate was grown as a control. […] See e.g. International Application Nos. WO 89/06686 and WO 87/05626. The experiment was performed as in Example 1 except that the inducer concentrations, temperatures, and days at which data was collected are as indicated in Table 2 and FIG. 1.

[2] = test system: cell line 25H9 (CHO cells); experiment: Example 2: cell number and viability; type: cell-based, Chinese hamster
Method: as §1, §2

[3] = CHO cell line 25H9 producing IL-1R-II, 30° C.
[4] = cell line 25H9 (CHO cells), 30° C.
[5] = cell line 25H9 (CHO cells), 31° C.
[6] = cell line 25H9 (CHO cells), 32° C.
[7] = 30° C., 10 μM decitabine, day 0
[8] = 30° C., 10 μM decitabine, day 3
[9] = 30° C., 10 μM decitabine, day 6
[10] = 30° C., 10 μM decitabine, day 8
[11] = 30° C., 15 μM decitabine, day 0
[12] = 30° C., 15 μM decitabine, day 3
[13] = 30° C., 15 μM decitabine, day 6
[14] = 30° C., 15 μM decitabine, day 8
[15] = 30° C., 20 μM decitabine, day 0
[16] = 30° C., 20 μM decitabine, day 3
[17] = 30° C., 20 μM decitabine, day 6
[18] = 30° C., 20 μM decitabine, day 8
[19] = 31° C., 10 μM decitabine, day 0
[20] = 31° C., 10 μM decitabine, day 3
[21] = 31° C., 10 μM decitabine, day 6
[22] = 31° C., 10 μM decitabine, day 8
[23] = 31° C., 15 μM decitabine, day 0
[24] = 31° C., 15 μM decitabine, day 3
[25] = 31° C., 15 μM decitabine, day 6
[26] = 31° C., 15 μM decitabine, day 8
[27] = 31° C., 20 μM decitabine, day 0
[28] = 31° C., 20 μM decitabine, day 3
[29] = 31° C., 20 μM decitabine, day 6
[30] = 31° C., 20 μM decitabine, day 8
[31] = 32° C., 10 μM decitabine, day 0
[32] = 32° C., 10 μM decitabine, day 3
[33] = 32° C., 10 μM decitabine, day 6
[34] = 32° C., 10 μM decitabine, day 8
[35] = 32° C., 15 μM decitabine, day 0
[36] = 32° C., 15 μM decitabine, day 3
[37] = 32° C., 15 μM decitabine, day 6
[38] = 32° C., 15 μM decitabine, day 8
[39] = 32° C., 20 μM decitabine, day 0
[40] = 32° C., 20 μM decitabine, day 3
[41] = 32° C., 20 μM decitabine, day 6
[42] = 32° C., 20 μM decitabine, day 8

Nc1ncn([C@H]2C[C@H](O)[C@@H](CO)O2)c(=O)n1 [decitabine, 5-aza-2′-deoxycytidine]
viability at 6 day, 10 μM [1, 3]: 70.3% | viability at 8 day, 10 μM [1, 3]: 49% | viability at 0 day, 15 μM [1, 3]: 94.2% | viability at 3 day, 15 μM [1, 3]: 88.9% | viability at 6 day, 15 μM [1, 3]: 85.9% | viability at 8 day, 15 μM [1, 3]: 33.2% | viability at 0 day, 20 μM [1, 3]: 94.2% | viability at 3 day, 20 μM [1, 3]: 93.3% | viability at 6 day, 20 μM [1, 3]: 77% | viability at 8 day, 20 μM [1, 3]: 48.4% | viability at 0 day, 10 μM ([1]; CHO cell line 25H9 producing IL-1R-II, 31° C.): 94.2% | viability at 0 day, 10 μM [1, 4]: 94.2% | viability at 3 day, 10 μM [1, 4]: 91.8% | viability at 3 day, 10 μM [1, 5]: 89.3% | viability at 6 day, 10 μM [1, 5]: 79.6% | viability at 8 day, 10 μM [1, 5]: 63.5% | viability at 0 day, 15 μM [1, 5]: 94.2% | viability at 3 day, 15 μM [1, 5]: 97.6% | viability at 6 day, 15 μM [1, 5]: 78.9% | viability at 8 day, 15 μM [1, 5]: 57.6% | viability at 0 day, 20 μM [1, 5]: 94.2% | viability at 3 day, 20 μM [1, 5]: 87.7% | viability at 6 day, 20 μM [1, 5]: 77.9% | viability at 8 day, 20 μM [1, 5]: 57.2% | viability at 0 day, 10 μM [1, 6]: 94.2% | viability at 3 day, 10 μM [1, 6]: 85.4% | viability at 6 day, 10 μM [1, 6]: 71.7% | viability at 8 day, 10 μM [1, 6]: 42.3% | viability at 0 day, 15 μM [1, 6]: 94.2% | viability at 3 day, 15 μM [1, 6]: 87.6% | viability at 6 day, 15 μM [1, 6]: 65.4% | viability at 8 day, 15 μM [1, 6]: 36.1% | viability at 0 day, 20 μM [1, 6]: 94.2% | viability at 3 day, 20 μM [1, 6]: 89.1% | viability at 6 day, 20 μM [1, 6]: 64.7% | viability at 8 day, 20 μM [1, 6]: 41.1% | Cumulative Viable Cell Density [2, 7]: 0 mL⁻¹ day⁻¹ | Viable Cell Density [2, 7]: 2e+06 mL⁻¹ | Cumulative Viable Cell Density [2, 8]: 7.4e+06 mL⁻¹ day⁻¹ | Viable Cell Density [2, 8]: 3e+06 mL⁻¹ | Cumulative Viable Cell Density [2, 9]: 1.43e+07 mL⁻¹ day⁻¹ | Viable Cell Density [2, 9]: 1.7e+06 mL⁻¹ | Cumulative Viable Cell Density [2, 10]: 1.81e+07 mL⁻¹ day⁻¹ | Viable Cell Density [2, 10]: 2.1e+06 mL⁻¹ | Cumulative Viable Cell Density [2, 11]: 0 mL⁻¹ day⁻¹ | Viable Cell Density [2, 11]: 2e+06 mL⁻¹ | Cumulative Viable Cell Density [2, 12]: 6.8e+06 mL⁻¹ day⁻¹ | Viable Cell Density [2, 12]: 2.6e+06 mL⁻¹ | Cumulative Viable Cell Density [2, 13]: 1.4e+07 mL⁻¹ day⁻¹ | Viable Cell Density [2, 13]: 2.2e+06 mL⁻¹ | Cumulative Viable Cell Density [2, 14]: 1.81e+07 mL⁻¹ day⁻¹ | Viable Cell Density [2, 14]: 1.9e+06 mL⁻¹ | Cumulative Viable Cell Density [2, 15]: 0 mL⁻¹ day⁻¹ | Viable Cell Density [2, 15]: 2e+06 mL⁻¹ | Cumulative Viable Cell Density [2, 16]: 7.9e+06 mL⁻¹ day⁻¹ | Viable Cell Density [2, 16]: 3.3e+06 mL⁻¹ | Cumulative Viable Cell Density [2, 17]: 1.63e+07 mL⁻¹ day⁻¹ | Viable Cell Density [2, 17]: 2.3e+06 mL⁻¹ | Cumulative Viable Cell Density [2, 18]: 2.04e+07 mL⁻¹ day⁻¹ | Viable Cell Density [2, 18]: 1.8e+06 mL⁻¹ | Cumulative Viable Cell Density [2, 19]: 0 mL⁻¹ day⁻¹ | Viable Cell Density [2, 19]: 2e+06 mL⁻¹ | Cumulative Viable Cell Density [2, 20]: 8.7e+06 mL⁻¹ day⁻¹ | Viable Cell Density [2, 20]: 3.9e+06 mL⁻¹ | Cumulative Viable Cell Density [2, 21]: 2.1e+07 mL⁻¹ day⁻¹ | Viable Cell Density [2, 21]: 4.3e+06 mL⁻¹ | Cumulative Viable Cell Density [2, 22]: 2.85e+07 mL⁻¹ day⁻¹ | Viable Cell Density [2, 22]: 3.2e+06 mL⁻¹ | Cumulative Viable Cell Density [2, 23]: 0 mL⁻¹ day⁻¹ | Viable Cell Density [2, 23]: 2e+06 mL⁻¹ | Cumulative Viable Cell Density [2, 24]: 7.9e+06 mL⁻¹ day⁻¹ | Viable Cell Density [2, 24]: 3.3e+06 mL⁻¹ | Cumulative Viable Cell Density [2, 25]: 1.92e+07 mL⁻¹ day⁻¹ | Viable Cell Density [2, 25]: 4.2e+06 mL⁻¹ | Cumulative Viable Cell Density [2, 26]: 2.58e+07 mL⁻¹ day⁻¹ | Viable Cell Density [2, 26]: 2.4e+06 mL⁻¹ | Cumulative Viable Cell Density [2, 27]: 0 mL⁻¹ day⁻¹ | Viable Cell Density [2, 27]: 2e+06 mL⁻¹ | Cumulative Viable Cell Density [2, 28]: 9.2e+06 mL⁻¹ day⁻¹ | Viable Cell Density [2, 28]: 4.2e+06 mL⁻¹ | Cumulative Viable Cell Density [2, 29]: 2.17e+07 mL⁻¹ day⁻¹ | Viable Cell Density [2, 29]: 4.2e+06 mL⁻¹ | Cumulative Viable Cell Density [2, 30]: 2.86e+07 mL⁻¹ day⁻¹ | Viable Cell Density [2, 30]: 2.7e+06 mL⁻¹ | Cumulative Viable Cell Density [2, 31]: 0 mL⁻¹ day⁻¹ | Viable Cell Density [2, 31]: 2e+06 mL⁻¹ | Cumulative Viable Cell Density [2, 32]: 8e+06 mL⁻¹ day⁻¹ | Viable Cell Density [2, 32]: 3.4e+06 mL⁻¹ | Cumulative Viable Cell Density [2, 33]: 1.9e+07 mL⁻¹ day⁻¹ | Viable Cell Density [2, 33]: 3.9e+06 mL⁻¹ | Cumulative Viable Cell Density [2, 34]: 2.49e+07 mL⁻¹ day⁻¹ | Viable Cell Density [2, 34]: 2.1e+06 mL⁻¹ | Cumulative Viable Cell Density [2, 35]: 0 mL⁻¹ day⁻¹ | Viable Cell Density [2, 35]: 2e+06 mL⁻¹ | Cumulative Viable Cell Density [2, 36]: 8e+06 mL⁻¹ day⁻¹ | Viable Cell Density [2, 36]: 3.4e+06 mL⁻¹ | Cumulative Viable Cell Density [2, 37]: 1.82e+07 mL⁻¹ day⁻¹ | Viable Cell Density [2, 37]: 3.4e+06 mL⁻¹ | Cumulative Viable Cell Density [2, 38]: 2.41e+07 mL⁻¹ day⁻¹ | Viable Cell Density [2, 38]: 2.5e+06 mL⁻¹ | Cumulative Viable Cell Density [2, 39]: 0 mL⁻¹ day⁻¹ | Viable Cell Density [2, 39]: 2e+06 mL⁻¹ | Cumulative Viable Cell Density [2, 40]: 8.3e+06 mL⁻¹ day⁻¹ | Viable Cell Density [2, 40]: 3.6e+06 mL⁻¹ | Cumulative Viable Cell Density [2, 41]: 1.87e+07 mL⁻¹ day⁻¹ | Viable Cell Density [2, 41]: 3.3e+06 mL⁻¹ | Cumulative Viable Cell Density [2, 42]: 2.36e+07 mL⁻¹ day⁻¹ | Viable Cell Density [2, 42]: 1.6e+06 mL⁻¹
